{"source": "patent US9920020B2", "about": "“Using squaraine dyes as near infrared fluorescent sensors for protein detection” (The University of Akron, priority 2011, dated 2018)", "key": {"BSA [1]": {"target": "T1, BSA (Bos taurus, UniProt P02769)", "T1 construct": "purchased Acros Chemical", "T1 sequence (P02769 25-607)": "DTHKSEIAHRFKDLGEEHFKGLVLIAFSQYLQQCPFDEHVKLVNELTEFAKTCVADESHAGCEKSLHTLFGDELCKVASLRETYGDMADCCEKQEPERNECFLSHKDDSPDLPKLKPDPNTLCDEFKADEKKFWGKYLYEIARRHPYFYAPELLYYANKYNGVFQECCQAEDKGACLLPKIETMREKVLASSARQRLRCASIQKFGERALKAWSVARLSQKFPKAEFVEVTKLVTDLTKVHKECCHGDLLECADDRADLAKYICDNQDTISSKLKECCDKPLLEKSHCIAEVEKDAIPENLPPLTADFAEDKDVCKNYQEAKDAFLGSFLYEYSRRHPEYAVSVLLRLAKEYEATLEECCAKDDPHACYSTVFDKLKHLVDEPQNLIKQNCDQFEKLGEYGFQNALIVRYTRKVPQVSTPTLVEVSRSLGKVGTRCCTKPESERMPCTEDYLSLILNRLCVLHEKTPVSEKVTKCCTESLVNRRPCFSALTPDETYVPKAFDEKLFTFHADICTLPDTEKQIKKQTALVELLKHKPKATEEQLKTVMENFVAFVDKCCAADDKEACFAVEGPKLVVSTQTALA", "assay": "Absorption titration with BSA, 1:1 binding model (dissociation constant)", "design": "species or system bovine", "conditions": "absorption titration in aqueous solution", "description": "(§1) With the 1:1 binding model from fitting of absorption titration spectra, the dissociation constant for BSA was estimated to be 9.35×10^−6 M upon titration with BSA in aqueous solution. In sharp contrast, there is no response to BSA in aqueous solution for 1b, as its binding to BSA requires addition of surfactant SDS or graphene."}, "trypsin": {"system": "trypsin", "assay": "Fluorescence response to trypsin in PBS", "format": "binding", "procedure": "(§2) The fluorescence enhancement upon binding BSA reached over 140-fold, which was quite large in comparison with those being reported. The detection limit was 1 μg/mL of BSA (signal-to-noise ratio was 3). The fluorescence response of DNSA-SQ to other proteins in PBS was also investigated. […] The observed specific binding to site I can be attributed to hydrophobic pockets of BSA in its structure."}, "lipase": {"system": "lipase", "assay": "Fluorescence response to lipase in PBS", "format": "binding", "procedure": "as §2"}, "BSA site I and site II": {"target": "T2, BSA site I and site II (Bos taurus, UniProt P02769)", "T2 construct": "purchased Acros Chemical", "T2 sequence (P02769 25-607)": "as above", "assay": "Site-selective ligand displacement from BSA/DNSA-SQ complex", "format": "binding, bovine", "description": "The site-selective binding of BSA/DNSA-SQ was probed by employing a site selective binding ligand, which would result in decrease in fluorescence intensity when the squaraine dyes were displaced from a specific BSA binding site. […] The observed fluorescence increasing thus implies that the BSA conformation change as DP entered the site II, which stimulated interaction of BSA/DNSA-SQ at site I. It was noted that a squaraine dye can selectively bind BSA at site I (˜40%) and site II (˜60%) on the assumption of no dependency between Site I and II of BSA. Circular dichroism (CD) was also used to probe the proposed binding mechanism. Similar CD spectra usually represent a similar binding mode between the sensor and protein. […] Under the same conditions, the effect of DNSA-SQ on the CD spectrum of BSA was similar to that of DNSA. The result further supports that DNSA-SQ was binding to site I of BSA.\nThe response of a fluorescence probe at a specific site (such as site I), therefore, could also shed some light on the binding of the other site (e.g. site II). Study of this synergetic interaction between two binding sites could lead to improved understanding on the protein-dye interaction."}, "[2]": {"system": "BSA injected into zebrafish embryos", "assay": "DNSA-SQ labeling of live developing zebrafish embryos", "format": "in vivo", "description": "(§3) The most attractive application for protein sensing is labeling and imaging in living organisms. Zebrafish have recently become an important model organism for the study of vertebrate imaging. This is because the embryos of zebrafish are transparent, allowing for clear observation of their organs without the need for dissection. The optical transparancy of zebrafish, therefore, provides a convenient organism for detection of ions by fluorescence microscopy. No published reports are found on the use of zebrafish for BSA fluorescence microscopy. Herein, DNSA-SQ was examined in developing zebrafish for its applicability. DNSA-SQ labeling was examined in developing zebrafish by adding DNSA-SQ to fish tank water (treatment lasted for one hour at room temperature). There was no labeling in control (i.e. without BSA supplement) embryos at 2.5 hours post fertilization (hpf, FIG. 20B), 36 hpf and 73 hpf (data not shown). […] At 73 hpf, the labeling was detected in the yolk and yolk extension (FIG. 20D), eye (FIG. 20E) and pigmented cells in the body trunk and tail regions (FIGS. 20G and H). […] The DNSA-SQ labeling pattern show good biocompatibility, excellent turn-on fluorescence."}, "lysozyme": {"target": "T3, lysozyme (Gallus gallus, UniProt P00698)", "T3 construct": "purchased SIGMA", "T3 sequence (P00698 19-147)": "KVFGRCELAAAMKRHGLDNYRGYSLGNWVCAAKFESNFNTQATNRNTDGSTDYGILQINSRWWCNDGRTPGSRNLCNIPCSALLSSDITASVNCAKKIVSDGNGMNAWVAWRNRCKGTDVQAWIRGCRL", "assay": "Fluorescence response to lysozyme in PBS", "format": "binding", "procedure": "as §2"}, "[3]": {"target": "T4, formaldehyde dehydrogenase (Pseudomonas putida, UniProt P46154)", "T4 construct": "purchased SIGMA", "T4 sequence (P46154 whole entry)": "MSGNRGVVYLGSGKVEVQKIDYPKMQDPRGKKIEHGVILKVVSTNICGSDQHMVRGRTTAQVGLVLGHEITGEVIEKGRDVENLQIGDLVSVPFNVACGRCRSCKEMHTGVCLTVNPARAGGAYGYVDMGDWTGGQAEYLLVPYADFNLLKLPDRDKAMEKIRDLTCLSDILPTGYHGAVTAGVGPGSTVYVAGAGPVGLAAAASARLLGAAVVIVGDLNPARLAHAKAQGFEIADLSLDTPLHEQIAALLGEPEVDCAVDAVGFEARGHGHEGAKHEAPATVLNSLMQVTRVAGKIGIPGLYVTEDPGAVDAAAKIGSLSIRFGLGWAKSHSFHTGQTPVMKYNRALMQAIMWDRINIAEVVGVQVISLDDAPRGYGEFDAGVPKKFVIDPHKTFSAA", "assay": "Fluorescence response to formaldehyde dehydrogenase in PBS", "format": "binding", "procedure": "as §2"}, "zebrafish embryos/larvae": {"system": "zebrafish embryos/larvae", "assay": "Toxicity to zebrafish embryos/larvae", "format": "in vivo", "description": "as §3\nTherefore DNSA-SQ was proving not toxic to the subjects. […]"}, "BSA [4]": {"target": "T1, BSA", "assay": "Fluorescence response of DNSA-SQ to BSA in aqueous solution without aggregation agent", "format": "binding, bovine", "procedure": "as §1, §2"}, "chymotrypsin": {"system": "chymotrypsin", "assay": "Fluorescence response to chymotrypsin in PBS", "format": "binding", "procedure": "as §2"}, "BSA [5]": {"target": "T1, BSA", "assay": "ESI travelling wave ion mobility mass spectrometry (TWIMS) of BSA-guest complexes", "design": "species or system bovine", "conditions": "15+ charge state", "description": "Ion mobility mass spectrometry, when coupled with ESI, can produce an array of multiply charged gas-phase ions from protein molecules in solution which is related to the solution-phase folded and unfolded conformation of the protein. The structural measurement, namely, collision cross-section, can be calculated from the drift time of each ion. Herein we use travelling wave ion mobility mass spectrometry (TWIMS) to detect the change of the protein conformation after different site selective binding guests were added in BSA buffer solution. TWIMS was performed under the same conditions to ensure minimal error for compassion. […] As shown in FIG. 19(c), the ions of DP were generated through the tandem MS of intact complex ions at 15+. Taking 15+ charge state for example, the mobility peak drift time tD=6.41, 6.80, 6.67 and 6.54 ms for BSA, BSA+DP, BSA+DNSA-SQ and BSA+DNSA, respectively. The corresponding experimental collision cross-sections (CCS) are 4298, 4364, 4342 and 4320 Å2 using standard curve. […] This finding is consistent with the fluorescence change discussed above, particularly for the fluorescence enhancement by adding DP to BSA/DNSA-SQ."}, "[6]": {"assay": "Fluorescence quantum yield of the dye in aqueous solution", "format": "physicochemical", "conditions": "no protein", "procedure": "NMR spectra were collected on a Varian 300 Gemini spectrometer. Mass spectrometric data were obtained on a HP1100LC/MSD mass spectrometry. HRMS data were performed on a TOF MS system. UV-Vis spectra were acquired on a Hewlett-Packard 8453 diode-array spectrometer. Fluorescence spectra were obtained on a HORIBA Jobin Yvon NanoLog spectrometer. The quantum yield of fluorescence of the sample was measured using bis(3-ethylbenzothiazol-2-ylidene)squaraine in ethanol (Φ=0.21) as a standard and calculated using equation (1): […]\nWhere Φunk is i the fluorescence quantum yield of the sample, Φstd is the fluorescence quantum yield of the standard, Iunk and Istd are the integrated emission intensities of the sample and the standard, respectively, Aunk and Astd are the absorbance of the sample and the standard at the excitation wavelength, respectively, and nunk and nstd are the refractive indexes of the corresponding solution.\nIn the presence of the anionic surfactant (sodium dodecyl sulfate, SDS) (1.7 mM or 0.05% wt), the fluorescence signals are further decreased by a factor of about 3. […] The emission signals at ˜684 nm is assigned to the monomeric 1b, as the fluorescence of squaraine dye typically has a small Stokes' shift (about 10-30 nm). […] Similar fluorescence enhancement is also observed from 1a and 1c after the addition of BSA. […]"}, "fibrinogen": {"target": "T5, fibrinogen (Homo sapiens, UniProt P02671+P02675+P02679)", "T5 sequence (P02671 20-629 limits assumed)": "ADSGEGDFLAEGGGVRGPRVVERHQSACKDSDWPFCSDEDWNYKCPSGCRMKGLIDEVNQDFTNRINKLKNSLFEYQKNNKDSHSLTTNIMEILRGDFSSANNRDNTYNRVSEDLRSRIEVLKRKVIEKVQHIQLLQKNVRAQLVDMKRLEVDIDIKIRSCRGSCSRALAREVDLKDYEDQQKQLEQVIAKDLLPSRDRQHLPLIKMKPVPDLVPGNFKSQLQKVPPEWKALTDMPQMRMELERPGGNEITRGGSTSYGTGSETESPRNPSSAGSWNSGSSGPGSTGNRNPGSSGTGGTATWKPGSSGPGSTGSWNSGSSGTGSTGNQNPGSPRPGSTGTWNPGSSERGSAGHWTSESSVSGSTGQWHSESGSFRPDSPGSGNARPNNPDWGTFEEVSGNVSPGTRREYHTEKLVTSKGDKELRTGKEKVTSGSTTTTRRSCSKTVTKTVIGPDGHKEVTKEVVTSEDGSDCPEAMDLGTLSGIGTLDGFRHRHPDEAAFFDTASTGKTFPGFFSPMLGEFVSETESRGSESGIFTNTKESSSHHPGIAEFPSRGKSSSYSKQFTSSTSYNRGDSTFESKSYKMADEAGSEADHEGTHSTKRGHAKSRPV", "T5 sequence (P02675 31-491)": "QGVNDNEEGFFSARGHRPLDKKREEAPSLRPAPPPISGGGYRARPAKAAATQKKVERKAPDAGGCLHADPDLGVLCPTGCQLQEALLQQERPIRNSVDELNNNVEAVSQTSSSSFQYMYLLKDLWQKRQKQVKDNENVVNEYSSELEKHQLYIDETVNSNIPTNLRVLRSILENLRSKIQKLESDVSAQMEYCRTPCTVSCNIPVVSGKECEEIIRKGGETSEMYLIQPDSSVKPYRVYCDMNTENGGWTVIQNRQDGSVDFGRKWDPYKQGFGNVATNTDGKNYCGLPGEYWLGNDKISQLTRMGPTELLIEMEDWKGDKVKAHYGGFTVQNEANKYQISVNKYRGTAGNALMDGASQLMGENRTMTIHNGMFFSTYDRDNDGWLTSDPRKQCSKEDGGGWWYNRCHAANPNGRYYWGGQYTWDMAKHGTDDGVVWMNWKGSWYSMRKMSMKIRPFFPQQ", "T5 sequence (P02679 27-433 limits assumed)": "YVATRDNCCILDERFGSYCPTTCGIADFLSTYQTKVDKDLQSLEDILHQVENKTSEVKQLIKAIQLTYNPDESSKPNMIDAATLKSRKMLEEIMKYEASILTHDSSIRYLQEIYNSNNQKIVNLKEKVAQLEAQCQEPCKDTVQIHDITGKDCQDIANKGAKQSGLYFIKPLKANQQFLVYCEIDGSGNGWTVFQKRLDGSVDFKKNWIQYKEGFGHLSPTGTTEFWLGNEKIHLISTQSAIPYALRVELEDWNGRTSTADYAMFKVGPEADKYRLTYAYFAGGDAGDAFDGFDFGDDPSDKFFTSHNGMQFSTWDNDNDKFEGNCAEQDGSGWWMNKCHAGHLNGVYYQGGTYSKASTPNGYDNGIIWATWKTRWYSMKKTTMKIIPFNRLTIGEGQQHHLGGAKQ", "assay": "Fluorescence response to fibrinogen in PBS", "format": "binding", "procedure": "as §2"}, "[7]": {"conditions": "dye in fish tank water, one hour, room temperature"}}}
{"smiles": "CCN1C(=CC2=C([N-]S(=O)(=O)c3cccc4c(N(C)C)cccc34)C(=Cc3sc4ccccc4[n+]3CC)C2=O)Sc2ccccc21", "note": "[DNSA-SQ]", "values": [{"measurement": "Kd", "setting": "BSA [1]", "value": 9.35, "unit": "µM"}, {"measurement": "fluorescence change with trypsin", "setting": "trypsin", "value": "no obvious fluorescence change"}, {"measurement": "fluorescence change with lipase", "setting": "lipase", "value": "no obvious fluorescence change"}, {"measurement": "fluorescence of BSA/DNSA-SQ complex on addition of site I ligand DNSA", "setting": "BSA site I and site II; displacement by DNSA", "value": "did not result in fluorescence intensity change"}, {"measurement": "fluorescence of BSA/DNSA-SQ complex on addition of site II ligand DP", "setting": "BSA site I and site II; displacement by DP", "value": "fluorescence intensity increasing"}, {"measurement": "BSA binding site selectivity", "setting": "BSA site I and site II; displacement by site-selective ligands and mass spectra data", "value": "enters selectively at site I"}, {"measurement": "labeling of control embryos without BSA supplement", "setting": "[2]; 2.5, 36 and 73 hpf", "value": "no labeling"}, {"measurement": "labeling of BSA-injected embryos at 2.5 hpf", "setting": "[2]; [7]", "value": "labeling of all dividing cells"}, {"measurement": "labeling of BSA-injected embryos at 73 hpf", "setting": "[2]; [7]", "value": "confined BSA labeling"}, {"measurement": "cell membrane penetration", "setting": "[2]; living zebrafish embryos", "value": "can easily penetrate through cell membranes"}, {"measurement": "fluorescence change with lysozyme", "setting": "lysozyme", "value": "no obvious fluorescence change"}, {"measurement": "fluorescence change with formaldehyde dehydrogenase", "setting": "[3]", "value": "no obvious fluorescence change"}, {"measurement": "size and shape of treated embryos/larvae compared to untreated", "setting": "zebrafish embryos/larvae", "value": "appeared normal in size and shape"}, {"measurement": "toxicity to treated embryos/larvae", "setting": "zebrafish embryos/larvae", "value": "not toxic"}, {"measurement": "fluorescence enhancement upon binding BSA", "setting": "BSA [4]; 674 nm, no aggregation agent", "value": "over 140 fold"}, {"measurement": "detection limit of BSA", "setting": "BSA [4]; signal-to-noise ratio 3", "value": 1, "unit": "µg/mL"}, {"measurement": "fluorescence change with chymotrypsin", "setting": "chymotrypsin", "value": "no obvious fluorescence change"}, {"measurement": "mobility peak drift time tD of BSA-guest complex", "setting": "BSA [5]", "value": 6.67, "unit": "ms"}, {"measurement": "experimental collision cross-section (CCS) of BSA-guest complex", "setting": "BSA [5]; standard curve", "value": 4342, "unit": "Å2"}, {"measurement": "fluorescence quantum yield φfl", "setting": "[6]", "value": "1.0×10^−4"}, {"measurement": "fluorescence change with fibrinogen", "setting": "fibrinogen", "value": "no obvious fluorescence change"}]}
